Laboratory results reported in patent publication US7312302B2, “Compositions for the detection of enzyme activity in biological samples and methods of use thereof” (Oncolmmunin, Inc., priority 1997, dated 2007).
Non-standard residues stand in square brackets, D forms with d. Residues, ends and D or L forms follow the SMILES beside them. No end group written: not given here. *: point of attachment. F1 = 5-carboxytetramethylrhodamine (donor fluorophore); code B = not defined here; code J = not defined here; Nle = CCCC[C@H](N)C(=O)O; Cbz = O=C(OCc1ccccc1)*; F^2 = not defined here; CH2F = FC*

What was measured:
[1] = intravenously injected antiFas; ischemia-reperfusion stroke model; cited from earlier work
[2] = tested on: intracellular caspases; test: Effect of ZVAD(OMe)FMK on in situ caspase activation in dexamethasone-treated thymocytes, flow cytometry at 6 h; type: cell-based, mouse; parameters: effect when added before or simultaneously with dexamethasone: dose or concentration left out as unconfirmed
Procedure: Thymocytes were treated with 0.1 mM dexamethasone in vitro and analyzed after a total of 6 h incubation. The apoptosis inhibitor ZVAD(OMe)FMK was added at various times of incubation as indicated, and the caspase activities were assessed by flow cytometry. The results are expressed as ratios of mean fluorescence channel number comparing the activity in the presence of 50 mM ZVAD(OMe)FMK with the uninhibited sample for that substrate.
Single cell suspensions of thymocytes were cultured in RPMI 1640 with 10% FCS at a concentration of 10 6 cells/ml. Dexamethasone (final concentration, 0.1 mM) and ZVAD (OMe)FMK (final concentration, 50 mM) were added at the indicated times from stock solutions in DMSO (100 mM for dexamethasone and 200 mM for ZVAD[OMe]FMK). […] After washing in saline, cells were analyzed by flow cytometry. […] The fluorescence intensity was then monitored for 30-60 min. The initial velocity was calculated from the linear portion of the fluorescence increase. […]
The ability to detect intracellular caspase activities allowed us to study the pharmacological target of the potent apoptosis inhibitor ZVAD(OMe)FMK. […] Activity was assessed by the mean fluorescence channel number of PInegative cells. […] However, when addition of this inhibitor was delayed, the intracellular activity of all caspases detected rose, with no significant selective depletion of activity. […]

[3] = tested on: thymocytes; conditions: in vitro; cited from earlier work
[4] = tested on: elastase; test: Elastase digestion of fluorogenic protease indicator, HPLC of cleavage products; type: biochemical; conditions: 1 unit of elastase, about 30 minutes, 37° C., pH 8.9
Procedure: Approximately 1 microgram of protease indicator, having the formula F^1-Asp-Ala-Ile-Pro-Nle-Ser-Ile-Pro-Cys-F^2 (SEQ ID No: 184) where F^1 is a donor fluorophore (5′-carboxytetramethylrhodamine (5-TMR)) linked to aspartic acid via the alpha amino group and F^2 is an acceptor fluorophore (rhodamine X acetamide (R492)) linked via the sulfhydryl group of the cysteine was dissolved in a buffer consisting of 50 mM sodium phosphate, 1 mM EDTA at pH 8.9. To this solution was added 1 unit of elastase. The solution was analyzed by HPLC before and about 30 minutes after the addition of elastase. The digestion was carried out at 37° C. The HPLC separated components were monitored at a wavelength of 550 nm which allowed detection of both the 5-TMR fluorophore the R492 fluorophore and at 580 nm which allowed detection of the R492 fluorophore.
In addition, the two predominant peaks in FIGS. 1(b) and 1(c) indicate that the digestion occurred primarily at a single site.

[5] = tested on: elastase; test: Emission spectrum change of indicator after addition of elastase (spectrofluorometer); type: biochemical; conditions: 37° C., slit widths 4 nm
Procedure: Changes in the emission spectrum of the fluorogenic protease indicator after the addition of an elastase protease was monitored using an SLM spectrofluorometer model 48000 with slit widths set at 4 nm on both the excitation and emission sides. All measurements were carried out at 37° C.
Spectra in FIG. 2 show emission of the fluorogenic protease indicator (a) before and (b) after addition of elastase, while the time dependent increase of the indicator's donor fluorophore emission intensity, after addition of elastase, is plotted in FIG. 3. […] The changes in intensity between treated and untreated indicators are, to some degree, a function of slit widths used, since they represent the signal integrated across the particular slit width. Thus, if wider slit widths were used (e.g. 8 or 16 nm slits) an even greater signal would be provided in response to digestion.

[6] = target: T1, CPP32 protease (Homo sapiens, UniProt P42574); test: Flow cytometric analysis of intracellular CPP32 protease activity in anti-Fas activated Jurkat cells; type: cell-based
T1 construct: served as a direct measure of the intracellular CPP32 protease activity; endogenous in cells
T1 sequence (P42574 29-277): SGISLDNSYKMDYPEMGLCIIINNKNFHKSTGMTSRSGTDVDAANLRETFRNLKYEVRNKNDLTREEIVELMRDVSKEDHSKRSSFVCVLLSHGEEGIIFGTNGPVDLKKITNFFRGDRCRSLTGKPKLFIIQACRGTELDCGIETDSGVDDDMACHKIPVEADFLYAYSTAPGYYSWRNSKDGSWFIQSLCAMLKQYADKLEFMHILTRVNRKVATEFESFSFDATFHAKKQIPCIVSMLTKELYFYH
Procedure: The concentration of substrates used in flow cytometric analysis was 10 M in RPMI1640 medium containing 4 to 10% fetal calf serum. Cell densities during incubation with the chosen substrates ranged from 50,000 cells per ml to 4,000,000 per ml. Incubation times were from 30 min. to 3 hours at 37° C. and incubation volumes were 50 μL to 2 ml. After incubation with substrate for 30 to 60 min. cell suspensions were diluted 10-fold with ice cold Hank's Buffered Saline Solution (HBSS). This filtered cell suspension was then subjected to flow cytometric analysis using a 488 nm excitation source. Becton Dickenson, Inc.'s flow cytometer, FacSort, was used in the flow cytometric analysis. […]
Control cells without substrate incubation and the sample with the greatest expected fluorescence signals were used to set the instrument detector parameters. For example after 15 minutes incubation of Jurkat cells with substrate compound #11 Fm-CGD2D: Fm—K[F1]DBJGDEVDGIDGJPK[F1]GY (SEQ ID NO: 202, where F1 was carboxytetramethylrhodamine; Fm was Fmoc, K[F1] was F1 covalently attached through the epsilon amino group of lysine (K), Nlu was norleucine, B was aminoisobutyric acid, and J was epsilon-aminocaproic acid) an increase of about 10 channels indicating cellular uptake of the substrates was measured. […] As much as a ten-fold increase in fluorescence intensity was observed. […]

[7] = tested on: Jurkat cells, HL-60 cells, human lymphocyte lines, A1.1 cells, murine primary thymocytes; test: Cellular uptake of substrates by fluorescence microscopy, flow cytometry, HPLC; type: cell-based; conditions: viable cells
Procedure: The compounds listed in Table 6 were synthesized and assayed for cellular uptake. Cellular internalization of the substrates was tested using Jurkat cells (a human acute T cell leukemic line), HL-60 cells (a human promyelocytic leukemic line), human lymphocyte lines, A1.1 cells (a murine T-cell line), and murine primary thymocytes. Procedures used in determining substrate uptake by viable cells are provided in Example 6 (for the HPLC procedures), in Example 2 (for the fluorescence microscopic analysis), and in Example 3 (for the flow cytometric analysis) a summary of these analyses with respect to cellular uptake of substrates is presented in this example.
The elastase substrate, Fm—K[F1]DAIPNluSIPK[F1]GY (SEQ ID NO:185), (where F1 was carboxytetramethylrhodamine, Fm was Fmoc, K[F1] was F1 covalently attached through the epsilon amino group of lysine (K), and Fm—K is the Fmoc group covalently attached at the alpha amino group of the amino terminal lysine residue) was used with HL-60 cells. Cells were incubated with various concentrations of elastase substrate ranging from 10 nM to 10 μM for 5 minutes to 60 minutes. Then the cells were diluted 5-fold with RPMI 1640 medium containing 5% serum or with phosphate buffered saline. The samples were centrifuged and washed once more with 1 ml of washing solution. After centrifugation and removal of the washing solution, cell pellets were loosened with about 25 ul of medium and these cells were transferred to a glass capillary. Capillary tubes were then placed on a glass microscope slide and examined under a fluorescence microscope using standard rhodamine filters.
For apoptosis-related protease activity determination, 10 μM concentration of the compounds listed in Example 8 (compound structures 2 through 13) were incubated with cells for 30 min. to 3 hours. The cells were then washed similarly twice. Using glass capillary tubes, the washed cells were transferred and examined under a fluorescence microscope.
The concentration of substrates used in flow cytometric analysis was 10 M in RPMI1640 medium containing 4 to 10% fetal calf serum. Cell densities during incubation with the chosen substrates ranged from 50,000 cells per ml to 4,000,000 per ml. Incubation times were from 30 min. to 3 hours at 37° C. and incubation volumes were 50 μL to 2 ml. After incubation with substrate for 30 to 60 min. cell suspensions were diluted 10-fold with ice cold Hank's Buffered Saline Solution (HBSS). This filtered cell suspension was then subjected to flow cytometric analysis using a 488 nm excitation source. Becton Dickenson, Inc.'s flow cytometer, FacSort, was used in the flow cytometric analysis. Typically, 10,000 to 30,000 events per sample were collected.

In the case of `COC(=O)C[C@H](NC(=O)[C@H](C)NC(=O)[C@@H](NC(=O)OCc1ccccc1)C(C)C)C(=O)CF` [ZVAD(OMe)FMK, carbobenzoxyvalylalanylaspartyl(bmethyl ester)fluoromethyl ketone] (Cbz-Val-Ala-Asp(OMe)-CH2F), the protection of mice [1] is given as “protect mice from the lethal effects”, the “effect of pretreatment followed by washing before dexamethasone addition” value [2] is given as “minimal inhibition” and the “effect when added before or simultaneously with dexamethasone” value [2] is given as “blocks apoptosis”. The “block of dexamethasone-induced thymocyte apoptosis” value [3] was “specifically blocks”.
With “F^1-Asp-Ala-Ile-Pro-Nle-Ser-Ile-Pro-Cys-F^2 (DAIP[Nle]SIPC-{F^2}; not fully specified (residue 9, N-terminus); printed as F1-Asp-Ala-Ile-Pro-Nle-Ser-Ile-Pro-Cys-F2; reading uncertain) [D-NorFES-A, F1 5'-carboxytetramethylrhodamine donor, F2 rhodamine X acetamide acceptor]” the “degree of cleavage by elastase (HPLC)” value [4] was “complete digestion”, the “increase in fluorescence at 589 nm after treatment with elastase” value [5] was > 10 fold and the “increase in fluorescence within the first 1000 seconds of exposure to the protease” value [5] was > 5 fold.
For “Fm-K[F1]DBJGDEVDGIDGJPK[F1]GY (K(F1)D[code B][code J]GDEVDGIDG[code J]PK(F1)GY; not fully specified (N-terminus); printed as Fm-K[F1]DBJGDEVDGIDGJPK[F1]GY; reading uncertain) [Compound 11]”, the “increase in fluorescence intensity in activated cells” value ([6]; 1 μg/ml anti-Fas antibody CH11 for 1 to 6 hours) was “ten-fold”, the “increase in channels indicating cellular uptake” value ([6]; 15 minutes incubation) was “about 10 channels” and the “cellular uptake (Table 6)” value [7] was “efficient cellular uptake”.
